Measurements from publication PMC12051037 (Chemistry (Weinheim an der Bergstrasse, Germany), 2024).
“Also recorded” adds a separate entry of the source.

Assay: Stability of the aldehyde in solution
Format: physicochemical
Settings: slowly converts into 1

With tumonolide aldehyde [compound 2] the stability was “not stable; also recorded: poor stability”.
